Measured values as given in ChEMBL document CHEMBL1128530, “Alpha- and beta-adrenoceptors: from the gene to the clinic. 1. Molecular biology and adrenoceptor subclassification” (J Med Chem, 1995).

Columns and labels:
[1] = molecular target: T1, Alpha-2A adrenergic receptor (Homo sapiens, UniProt P08913); test: Binding affinity against Alpha-2A adrenergic receptor, from human clones.
T1 sequence (P08913 whole entry): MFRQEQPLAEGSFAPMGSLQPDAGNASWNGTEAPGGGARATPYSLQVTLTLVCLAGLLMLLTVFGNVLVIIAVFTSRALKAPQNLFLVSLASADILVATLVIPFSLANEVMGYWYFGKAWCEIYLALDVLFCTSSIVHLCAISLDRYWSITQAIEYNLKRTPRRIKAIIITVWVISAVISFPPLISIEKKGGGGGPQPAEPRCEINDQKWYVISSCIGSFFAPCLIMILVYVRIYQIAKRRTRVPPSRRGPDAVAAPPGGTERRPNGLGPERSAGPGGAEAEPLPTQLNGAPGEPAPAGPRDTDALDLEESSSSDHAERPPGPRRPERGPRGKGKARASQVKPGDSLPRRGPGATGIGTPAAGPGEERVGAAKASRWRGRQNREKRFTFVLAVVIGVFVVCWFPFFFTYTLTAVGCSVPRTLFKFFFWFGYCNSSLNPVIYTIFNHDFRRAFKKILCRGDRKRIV

[2] = molecular target: T2, Alpha-1A adrenergic receptor (Bos taurus, UniProt P18130); test: Binding affinity against Alpha-1A adrenergic receptor from bovine clone
T2 sequence (P18130 whole entry): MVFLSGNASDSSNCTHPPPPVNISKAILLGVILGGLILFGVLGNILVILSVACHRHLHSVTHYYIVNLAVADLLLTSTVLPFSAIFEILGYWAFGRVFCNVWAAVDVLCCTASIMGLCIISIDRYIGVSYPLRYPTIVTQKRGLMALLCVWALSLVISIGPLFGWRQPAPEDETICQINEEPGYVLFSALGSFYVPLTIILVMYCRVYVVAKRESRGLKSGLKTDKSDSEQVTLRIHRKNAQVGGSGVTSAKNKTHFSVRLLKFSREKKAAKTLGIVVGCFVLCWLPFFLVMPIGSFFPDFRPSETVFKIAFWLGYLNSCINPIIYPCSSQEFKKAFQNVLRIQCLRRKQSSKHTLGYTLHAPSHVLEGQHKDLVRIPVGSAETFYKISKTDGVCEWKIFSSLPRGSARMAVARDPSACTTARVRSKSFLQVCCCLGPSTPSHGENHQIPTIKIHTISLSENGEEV

**Q.** With `COc1cccc(OC)c1OCCNCC1COc2ccccc2O1` (configuration not stated) as the compound, how does the Ki [1] read?
**A.** Its Ki is 3.5 nM.

**Q.** What about the Ki [2] of the same compound?
**A.** The Ki was 0.35 nM.
